32 molecules from patent publication US20210038559A1, “CANNABINOIDS AND DERIVATIVES FOR PROMOTING IMMUNOGENICITY OF TUMOR AND INFECTED CELLS” (priority 2018, published 2021) can be followed below.

In the first experiment the test system is MHC-I expression by COLO 205 cells. Put plainly: cells. The experiment is classed as cell-based, human.
Conditions: not given
The protocol: A panel of synthetic cannabinoids (Cayman Chemical, #9002891) was tested for MHC class I-inducing capability in COLO 205 cells as described above. COLO 205 cells were treated with the compounds at a concentration of 35 μM and evaluated for cell surface MHC class I expression after 48 hours. Cells were harvested, stained with MHC-I mAb W6/32 (Thermo Fisher). MHC-I expression was determined by flow cytometry.
In the case of “(1-ethyl-1H-indol-3-yl)-1-naphthalenyl-methanone [Example 272]”, the “Induction Fold” value turned out to be 1.53 Fold.

The experiment is the same for the next values; noted with them: Homo sapiens, COLO 205, 48 h, MHC-I expression, COLO 205 cells, compounds at 35 μM, 48 hours, flow cytometry (W6/32); read-out: Induction Fold.
With `CCCCCn1cc(C(=O)c2c(OC)ccc3ccccc23)c2ccccc21` [Example 90, (2-methoxy-1-naphthalenyl)(1-pentyl-1H-indol-3-yl)-methanone], the fold induction at 35 µM was 2.5.

On to `O=C(c1cn(CCCCCF)c2ccccc12)N1CCCC1` [Example 215, (1-(5-fluoropentyl)-1H-indol-3-yl)(pyrrolidin-1-yl)methanone], for which the fold induction at 35 µM stood at 1.8.

Consider `O=C(Oc1cncc2ccccc12)c1cn(CC2CCCCC2)c2ccccc12` [Example 124, isoquinolin-4-yl 1-(cyclohexylmethyl)-1H-indole-3-carboxylate], for which the fold induction at 35 µM was found to be 2.3.

Take `CCCCCCc1ccc(O)cc1OCCCCCCCCCCC(=O)NC1CC1` [Example 302, N-cyclopropyl-11-(2-hexyl-5-hydroxyphenoxy)-undecanamide]: the fold induction at 35 µM came out at 1.4.

Consider `CCCCCn1cc(C(=O)c2ccc(OC)c3ccccc23)c2ccccc21` [Example 265, (4-methoxy-1-naphthalenyl)(1-pentyl-1H-indol-3-yl)-methanone], for which the fold induction at 35 µM turned out to be 1.55.

In the case of `O=C(Nc1cccc2ccccc12)c1cn(CCCCCF)c2ccccc12` [Example 286, 1-(5-fluoropentyl)-N-(naphthalen-1-yl)-1H-indole-3-carboxamide], the fold induction at 35 µM turned out to be 1.45.

Take `CCCCCn1cc(C(=O)c2ccc(Br)c3ccccc23)c2ccccc21` [Example 205, (4-bromo-1-naphthalenyl)(1-pentyl-1H-indol-3-yl)-methanone]: the fold induction at 35 µM worked out at 1.86.

In the case of `O=C(Nc1cccc2ccccc12)c1nn(CCCCCF)c2ccccc12` [Example 184, 1-(5-fluoropentyl)-N-1-naphthalenyl-1H-indazole-3-carboxamide], the fold induction at 35 µM stood at 1.9.

For `CCc1ccc(C(=O)c2cn(CCCCCF)c3ccccc23)c2ccccc12` [Example 216, (4-ethyl-1-naphthalenyl)[1-(5-fluoropentyl)-1H-indol-3-yl]-methanone], the fold induction at 35 µM stood at 1.79.

Take `O=C(Oc1ccc2cnccc2c1)c1cn(CC2CCCCC2)c2ccccc12` [Example 327, isoquinolin-6-yl 1-(cyclohexylmethyl)-1H-indole-3-carboxylate]: the fold induction at 35 µM was determined as 1.24.

Turning to `CC(F)CCCn1cc(C(=O)Nc2cccc3ccccc23)c2ccccc21` (centres unmarked) [Example 339, 1-(4-fluoropentyl)-N-(naphthalen-1-yl)-1H-indole-3-carboxamide], the fold induction at 35 µM was 1.19.

In the case of `COC(=O)[C@@H](NC(=O)c1nn(CC2CCCCC2)c2ccccc12)C(C)C` [Example 14, N-[[1-(cyclohexylmethyl)-1H-indazol-3-yl]carbonyl]-L-valine, methyl ester], the fold induction at 35 µM turned out to be 4.2.

As to `CC(C)[C@H](NC(=O)c1cc(-c2ccc(F)cc2)n(CC2CCCCC2)n1)C(N)=O` [Example 344, (S)-N-(1-amino-3-methyl-1-oxobutan-2-yl)-1-(cyclohexylmethyl)-5-(4-fluorophenyl)-1H-pyrazole-3-carboxamide], the fold induction at 35 µM turned out to be 1.14.

For the molecule `O=C(c1cccc2ccccc12)c1nn(CCCCCCl)c2ccccc12` [Example 142, (1-(5-chloropentyl)-1H-indazol-3-yl)(naphthalen-1-yl)methanone], the fold induction at 35 µM worked out at 2.19.

`CCCCCn1cc(C(=O)Nc2cccc3ccccc23)c2ccccc21` [Example 329, N-1-naphthalenyl-1-pentyl-1H-indole-3-carboxamide]: the fold induction at 35 µM was 1.23.

In the case of `CCCCCn1cc(C(=O)Oc2cccc3cnccc23)c2ccccc21` [Example 99, isoquinolin-5-yl 1-pentyl-1H-indole-3-carboxylate], the fold induction at 35 µM turned out to be 2.43.

On to `O=C(c1ccccc1I)c1cn(CCCCCF)c2ccccc12` [Example 54, [1-(5-fluoropentyl)-1H-indol-3-yl](2-iodophenyl)-methanone], for which the fold induction at 35 µM is 2.93.

As to `CCCCCn1cc(C(=O)N[C@@H](Cc2ccccc2)C(N)=O)c2ccccc21` [Example 246, (S)-N-(1-amino-1-oxo-3-phenylpropan-2-yl)-1-pentyl-1H-indole-3-carboxamide], the fold induction at 35 µM was determined as 1.65.

`CCCCCn1cc(C(=O)c2cccc3ccc(OC)cc23)c2ccccc21` [Example 163, (7-methoxy-1-naphthalenyl)(1-pentyl-1H-indol-3-yl)-methanone]: the fold induction at 35 µM came to 2.04.

For `C=C(C)[C@@H]1CCC(C)=C[C@H]1C1=C(O)C(=O)C(CCCCC)=CC1=O` [Example 377, 3-hydroxy-2-[(1R,6R)-3-methyl-6-(1-methylethenyl)-2-cyclohexen-1-yl]-5-pentyl-2,5-cyclohexadiene-1,4-dione], the fold induction at 35 µM was determined as 0.3.

Take `CCCCCn1c2ccccc2c2cc(C(=O)c3cccc4ccccc34)ccc21` [Example 315, naphthalen-1-yl(9-pentyl-9H-carbazol-3-yl)methanone]: the fold induction at 35 µM was determined as 1.32.

Turning to `CN1CCCCC(n2cc(C(=O)C3C(C)(C)C3(C)C)c3ccccc32)C1` (centres unmarked) [Example 305, (1-(1-methylazepan-3-yl)-1H-indol-3-yl)(2,2,3,3-tetramethylcyclopropyl)methanone], the fold induction at 35 µM is 1.38.

Turning to `CC(C)[C@H](NC(=O)c1cn(CC2CCCCC2)c2ccccc12)C(N)=O` [Example 96, (S)-N-(1-amino-3-methyl-1-oxobutan-2-yl)-1-(cyclohexylmethyl)-1H-indole-3-carboxamide], the fold induction at 35 µM amounted to 2.44.

With `CCCCn1cc(C(=O)c2c(C)ccc3ccccc23)c2ccccc21` [Example 22, (1-butyl-1H-indol-3-yl)(2-methylnaphthalen-1-yl)methanone], the fold induction at 35 µM amounted to 3.84.

As to `CCCCCn1cc(C(=O)Oc2ccnc3ccccc23)c2ccccc21` [Example 10, quinolin-4-yl 1-pentyl-1H-indole-3-carboxylate], the fold induction at 35 µM is 5.02.

As to `CC(C)[C@H](NC(=O)c1nn(Cc2ccc(F)cc2)c2ccccc12)C(N)=O` [Example 172, N-[(1S)-1-(aminocarbonyl)-2-methylpropyl]-1-[(4-fluorophenyl)methyl]-1H-indazole-3-carboxamide], the fold induction at 35 µM was determined as 1.99.

As to `CCCCCn1cc(C(=O)N[C@H](C(=O)OC)C(C)C)c2ccccc21` [Example 328, N-[(1-pentyl-1H-indol-3-yl)carbonyl]-L-valine, methyl ester], the fold induction at 35 µM is 1.24.

The same experiment, now with this note: MHC-I expression, COLO 205 cells, compounds at 35 μM, 48 hours, flow cytometry (W6/32).
As for `CCCCCn1cc(-c2nc(CN(CC)CC)cs2)c2ccccc21` [Example 366], the “Induction Fold” value stood at 0.89 Fold.

On to `CCCCCn1cc(C(=O)c2cccc3ccccc23)c2ccccc21` [Example 71, (1-pentyl-1H-indol-3-yl)-1-naphthalenyl-methanone], for which the “Induction Fold” value is listed as 2.69 Fold.

In the case of `O=C(NC12CC3CC(CC(C3)C1)C2)c1nn(Cc2ccc(F)cc2)c2ccccc12` [Example 117, N-((3s,5s,7s)-adamantan-1-yl)-1-(4-fluorobenzyl)-1H-indazole-3-carboxamide], the “Induction Fold” value is given as 2.34 Fold.

In the case of `CCCCCCC(C)(C)C1=CC(=O)C([C@H]2CCC[C@@H](O)C2)=CC1=O` [Example 61, 3′R-hydroxy-4-(2-methyloctan-2-yl)-[1,1′S-bi(cyclohexane)]-3,6-diene-2,5-dione], the “Induction Fold” value came out at 2.85 Fold.
